In patent US10577362B2, “Substituted 2, 4-diamino-quinoline derivatives for use in the treatment of proliferative diseases” (GENOSCIENCE PHARMA, priority 2016, dated 2020):

What was measured:
[1] = tested on: MOLM-14 (acute myeloid leukemia) cell line; assay: CellTiter-Glo luminescent cell viability assay, MOLM-14; format: cell-based, human; conditions: Homo sapiens; for viability at 4 µM: MOLM-14, compound at 4 μM; for viability at 4 µM / viability at 10 µM: 72 h; for viability at 10 µM: MOLM-14, compound at 10 μM; for EC50: MOLM-14 cell line, 72 h incubation, CellTiter-Glo, read-out: EC50, growth inhibition of MOLM-14
How it was run: (§1)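 Adherent lines plated overnight, MOLM-14 (suspension) 1 h before dosing, in medium with 10% FBS at 37 °C, 5% CO2. Compounds added at varying concentrations for 72 h; CellTiter-Glo luminescence read, EC50 as dose reducing signal to 50% of diluent-treated cells, at least duplicate points.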

[2] = tested on: A375 (malignant melanoma) cell line; assay: CellTiter-Glo luminescent cell viability assay, A375; format: cell-based, human; conditions: Homo sapiens, A-375; for viability at 4 µM: A375, compound at 4 μM; for viability at 4 µM / viability at 10 µM: 72 h; for viability at 10 µM: A375, compound at 10 μM; for EC50: A375 cell line, 72 h incubation, CellTiter-Glo, read-out: EC50, growth inhibition of A375
How it was run: (§2)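 72 h compound exposure, 37 °C, 5% CO2, 10% FBS medium; ATP luminescence read after 30 min RT equilibration. Viability as % of H2O/DMSO diluent control; EC50 = dose giving 50% of control signal. Duplicate points minimum.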

[3] = tested on: HCT-116 (colorectal carcinoma) cell line; assay: CellTiter-Glo luminescent cell viability assay, HCT-116; format: cell-based, human; conditions: Homo sapiens; for viability at 4 µM: HCT-116, compound at 4 μM; for viability at 4 µM / viability at 10 µM: 72 h; for viability at 10 µM: HCT-116, compound at 10 μM; for EC50: HCT-116 cell line, 72 h incubation, CellTiter-Glo, read-out: EC50, growth inhibition of HCT-116
How it was run: as §2

[4] = tested on: Huh7 (hepatocellular carcinoma) cell line; assay: CellTiter-Glo luminescent cell viability assay, Huh7; format: cell-based, human; conditions: Homo sapiens, Huh-7; for viability at 4 µM: Huh7, compound at 4 μM; for viability at 4 µM / viability at 10 µM: 72 h; for viability at 10 µM: Huh7, compound at 10 μM; for EC50: Huh7 cell line, 72 h incubation, CellTiter-Glo, read-out: EC50, growth inhibition of Huh7
How it was run: as §1

[5] = tested on: 786-O (renal adenocarcinoma) cell line; assay: CellTiter-Glo luminescent cell viability assay, 786-O; format: cell-based, human; conditions: Homo sapiens, 786-0; for EC50: 786-O cell line, 72 h incubation, CellTiter-Glo, read-out: EC50, growth inhibition of 786-O; for viability at 4 µM / viability at 10 µM: 786-O, 72 h; for viability at 4 µM: compound at 4 μM; for viability at 10 µM: compound at 10 μM
How it was run: as §2

[6] = tested on: HepG2 (hepatocellular carcinoma) cell line; assay: CellTiter-Glo luminescent cell viability assay, HepG2; format: cell-based, human; conditions: Homo sapiens; for viability at 4 µM / viability at 10 µM: HepG2, HepG, 72 h; for viability at 4 µM: compound at 4 μM; for viability at 10 µM: compound at 10 μM; for EC50: HepG2 cell line, 72 h incubation, CellTiter-Glo, read-out: EC50, growth inhibition of HepG2
How it was run: as §1

[7] = tested on: PANC-1 (prancreatic carcinoma) cell line; assay: CellTiter-Glo luminescent cell viability assay, PANC-1; format: cell-based; conditions: Homo sapiens; for viability at 4 µM: PANC-1, 4 μM; for viability at 4 µM / viability at 10 µM: 72 h, % of signal of diluent-treated cultures; for viability at 10 µM: PANC-1, 10 μM; for EC50: PANC-1 cell line, 72 h incubation, CellTiter-Glo, read-out: EC50 (growth inhibition assay of PANC-1 cell line)
Description: All cell lines were maintained in medium containing 1% penicillin-streptomycin (Dutscher, P06-07100) and 10% Fetal Bovine Serum (Hyclone Dutscher, RZK35922) cultured at 37° C. with 5% CO2. HepG2 (hepatocellular carcinoma), cell line was cultured in Dulbecco's modified Eagle's medium low glucose (Gibco, 21885025), Huh7 (hepatocellular carcinoma), HCT-116 (colorectal carcinoma), PANC-1 (prancreatic carcinoma) and A375 (malignant melanoma) cell lines were cultured in Dulbecco's modified Eagle's medium (Dutscher, L0103). MOLM-14 (acute myeloid leukemia) cell line was maintained in MEM alpha medium (Gibco, 22561-021). 786-0 (renal adenocarcinoma) cell lines were maintained in RPMI 1640 medium (Dutscher, L0498).
Cell viability was measured using the CellTiter-Glo® luminescent cell viability assay as described by the manufacturer (Promega, Ref G7571) using an Infinite F200Pro luminometer (Tecan). Briefly, for adherent cells, cells were plated onto 96-well plates (white with clear bottom) in 90 μL of media per well and were allowed to grow overnight before the assay. For cells growing in suspension, cells were plated onto 96-well plates 1 h before the assay.
Compounds were resuspended in H2O or DMSO and added at different concentrations to each well, and cell cultures were incubated for 72 h. Each diluent (H2O or DMSO) were used as a control, and all compounds were tested in a constant percentage of H2O or DMSO. On the day of the reading, plates are equilibrated 30 min at room temperature before the addition of 100 μL of CellTiter-Glo® and luminescence was measured using an Infinite F200Pro (Tecan). % cell viability were expressed as a percentage of the signal obtained for cell cultures treated with diluent. EC50 values were determined as the dose of compound required to reduce luminescent values to 50% of the signal obtained for cell cultures treated with diluent. The experimental data were analyzed using a computer program, Graphpad Prism v5 (GraphPad Software, Inc. La Jolla, Calif.). All points were at least done in duplicate.

SMILES	viability at 4 µM [1]	viability at 10 µM [1]	EC50 [1]	viability at 4 µM [2]	viability at 10 µM [2]	EC50 [2]	viability at 4 µM [3]	viability at 10 µM [3]	EC50 [3]	viability at 4 µM [4]	viability at 10 µM [4]	EC50 [4]	EC50 [5]	viability at 4 µM [5]	viability at 10 µM [5]	viability at 4 µM [6]	viability at 10 µM [6]	EC50 [6]	viability at 4 µM [7]	viability at 10 µM [7]	further results
N#Cc1c(NCc2ccc(Cl)cc2)nc2ccccc2c1N1CCC(N2CCCC2)CC1 [Compound 200CN, 2-(4-chlorobenzylamino)-3-cyano-4-[4-(pyrrolidin-1-yl)piperidin-1-yl]quinoline]	92.7%	0.4%	0.5 to 5 µM	65.9%	0.4%	0.5 to 5 µM	78.1%	0.5%	0.5 to 5 µM	83.1%	0.7%	5 to 10 µM	0.5 to 5 µM	74.8%	2.2%	90.8%	0.9%	5 to 10 µM	98.8%	60.8%	EC50 [7]: 5 to 10 µM
CC(C)(C)NC1CCN(c2c(C#N)c(NCc3ccc(F)cc3)nc3ccccc23)CC1 [Compound 240CN, 2-(4-fluorobenzylamino)-3-cyano-4-[4-(tert-butylamino)piperidin-1-yl]quinoline]	100%	0.5%	5 to 10 µM	64.5%	0.3%	0.5 to 5 µM	55.2%	0.3%	0.5 to 5 µM	80%	0.4%	0.5 to 5 µM	5 to 10 µM	77.2%	0.7%	86.7%	0.4%	0.5 to 5 µM	98.3%	30%	EC50 [7]: 5 to 10 µM
CC(C)(C)NC1CCN(c2c(F)c(NCc3ccc(F)cc3)nc3ccccc23)CC1 [Compound 240F, 2-(4-fluorobenzylamino)-3-fluoro-4-[4-(tert-butylamino)piperidin-1-yl]quinoline]	83.4%	50.8%	5 to 10 µM	73.6%	0.2%	5 to 10 µM	49.6%	0.2%	5 to 10 µM	70.5%	2.5%	5 to 10 µM	5 to 10 µM	94.7%	28.7%	46.1%	0.1%	5 to 10 µM	96.5%	59.5%	EC50 [7]: 5 to 10 µM
Cc1cccc2c(N3CCC(NC(C)(C)C)CC3)c(C#N)c(NCc3ccc(Cl)cc3)nc12 [Compound 414CN, 2-(4-chlorobenzylamino)-3-cyano-4-[4-(tert-butylamino)piperidin-1-yl]-8-methylquinoline]	0.5%	0.3%	0.5 to 5 µM	0.3%	0.4%	0.5 to 5 µM	0.3%	0.3%	0.5 to 5 µM	79.8%	0.5%	0.5 to 5 µM	0.5 to 5 µM	0.7%	0.3%	9%	0.5%	0.5 to 5 µM	91%	0.8%	EC50 [7]: 5 to 10 µM
Cc1ccc2c(N3CCC(NC(C)(C)C)CC3)c(C#N)c(NCc3ccc(Cl)cc3)nc2c1 [Compound 416CN, 2-(4-chlorobenzylamino)-3-cyano-4-[4-(tert-butylamino)piperidin-1-yl]-7-methylquinoline]	37.9%	0.4%	0.5 to 5 µM	0.4%	0.4%	0.5 to 5 µM	0.3%	0.3%	0.5 to 5 µM	75.5%	0.6%	0.5 to 5 µM	0.5 to 5 µM	0.4%	0.3%	61.9%	0.5%	0.5 to 5 µM	100%	0.7%	EC50 [7]: 5 to 10 µM
Cc1ccc2nc(NCc3ccc(Cl)cc3)c(C#N)c(N3CCC(NC(C)(C)C)CC3)c2c1 [Compound 418CN, 2-(4-chlorobenzylamino)-3-cyano-4-[4-(tert-butylamino)piperidin-1-yl]-6-methylquinoline]	3.8%	0.3%	0.5 to 5 µM	0.3%	0.3%	0.5 to 5 µM	0.2%	0.2%	0.5 to 5 µM	50.5%	0.3%	0.5 to 5 µM	0.5 to 5 µM	0.9%	0.2%	5%	0.2%	0.5 to 5 µM	79.8%	0.4%	EC50 [7]: 5 to 10 µM
N#Cc1c(NCc2ccc(Cl)cc2)nc2ccccc2c1N1CCC(Oc2ccccc2)CC1 [Compound 2940CN, 2-(4-chlorobenzylamino)-3-cyano-4-(4-phenoxypiperidin-1-yl)quinoline]	102%	89.1%	–	104%	98.3%	–	92.9%	82.9%	–	97.3%	88.9%	–	–	97.1%	91.7%	89.7%	79.4%	–	103%	102%	–
Cc1ccc(OC2CCN(c3c(C#N)c(NCc4ccc(Cl)cc4)nc4ccccc34)CC2)cc1 [Compound 2944CN, 2-(4-chlorobenzylamino)-3-cyano-4-[4-(p-tolyloxy)piperidin-1-yl]quinoline]	104%	92.1%	–	96.9%	87.1%	–	32.8%	29.1%	–	93.9%	89%	–	–	96%	95.5%	107%	84%	–	111%	112%	–
